# Assay results: ChEMBL document CHEMBL5241098, “Progress in the development of small molecular inhibitors of the Bruton's tyrosine kinase (BTK) as a promising cancer therapy” (Bioorg Med Chem, 2021)
# How the values were obtained:
# [1] = target: E3 ubiquitin-protein ligase XIAP/Tyrosine-protein kinase BTK (Homo sapiens, UniProt P98170+Q06187); test: PROTAC activity at IAP/BTK in human THP-1 cells assessed as reduction in BTK level incubated for 16 hrs by immunoblot analysis; type: cell-based
# [2] = Antiproliferative activity against human MINO cells assessed as reduction in cell viability incubated for 72 hrs by CellTiter Glo luminescence assay
# [3] = test system: JeKo-1; test: Antiproliferative activity against BTK knockout human JeKo-1 cells assessed as reduction in cell viability incubated for 72 hrs by CellTiter Glo luminescence assay; conditions: JeKo-1, 72 h
# [4] = test system: Z-138; test: Antiproliferative activity against human Z138 cells assessed as reduction in cell viability incubated for 72 hrs by CellTiter Glo luminescence assay; conditions: Z-138, 72 h
# [5] = test system: Maver1; test: Antiproliferative activity against human MAVER-1 cells assessed as reduction in cell viability incubated for 72 hrs by CellTiter Glo luminescence assay; conditions: Maver1, 72 h
# [6] = target: T1, Tyrosine-protein kinase BTK (Homo sapiens, UniProt Q06187); test: Inhibition of BTK (unknown origin) incubated for 40 mins in the presence of ATP by scintillation based radiometric protein kinase assay
# [7] = target: T2, Receptor-type tyrosine-protein kinase FLT3 (Homo sapiens, UniProt P36888); test: Inhibition of FLT3 (unknown origin)
# T2 sequence (P36888 whole entry): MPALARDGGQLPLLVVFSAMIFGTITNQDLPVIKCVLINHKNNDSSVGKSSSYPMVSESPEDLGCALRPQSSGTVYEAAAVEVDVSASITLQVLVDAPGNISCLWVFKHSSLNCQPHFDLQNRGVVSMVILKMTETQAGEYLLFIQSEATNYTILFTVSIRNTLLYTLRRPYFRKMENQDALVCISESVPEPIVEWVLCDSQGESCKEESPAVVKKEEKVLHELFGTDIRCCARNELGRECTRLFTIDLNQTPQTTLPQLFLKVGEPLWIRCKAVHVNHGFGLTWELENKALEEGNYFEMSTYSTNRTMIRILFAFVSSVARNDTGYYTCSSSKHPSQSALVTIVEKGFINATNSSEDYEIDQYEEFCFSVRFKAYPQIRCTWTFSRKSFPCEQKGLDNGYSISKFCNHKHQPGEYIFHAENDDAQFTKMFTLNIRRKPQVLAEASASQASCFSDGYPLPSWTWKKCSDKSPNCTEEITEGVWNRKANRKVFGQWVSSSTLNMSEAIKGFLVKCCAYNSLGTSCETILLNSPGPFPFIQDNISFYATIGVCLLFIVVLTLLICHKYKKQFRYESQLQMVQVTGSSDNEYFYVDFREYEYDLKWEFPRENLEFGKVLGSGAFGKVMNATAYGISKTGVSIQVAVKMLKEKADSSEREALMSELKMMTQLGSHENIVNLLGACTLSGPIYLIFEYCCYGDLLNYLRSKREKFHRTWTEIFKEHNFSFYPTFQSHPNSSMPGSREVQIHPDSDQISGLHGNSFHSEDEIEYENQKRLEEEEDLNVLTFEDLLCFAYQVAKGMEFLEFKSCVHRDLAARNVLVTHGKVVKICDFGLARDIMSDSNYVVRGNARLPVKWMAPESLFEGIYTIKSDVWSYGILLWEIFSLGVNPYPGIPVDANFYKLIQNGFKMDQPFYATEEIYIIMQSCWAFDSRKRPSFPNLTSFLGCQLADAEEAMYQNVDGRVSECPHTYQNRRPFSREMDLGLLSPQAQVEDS
# [8] = Inhibition of CDK2/Cyclin E (unknown origin) in the presence of ATP; design: species or system Homo sapiens
# [9] = target: T1, Tyrosine-protein kinase BTK; test: Inhibition of BTK (unknown origin) in the presence of ATP
# [10] = target: T3, Protein cereblon/Tyrosine-protein kinase BTK (Homo sapiens, UniProt Q06187+Q96SW2, C481S); test: PROTAC activity at CRBN/BTK C481S mutant in human Ramos cells assessed as decrease in BTK C481S level incubated for 48 hrs by immunoblot analysis; type: cell-based
# [11] = test system: Ramos; test: Antiproliferative activity against human Ramos cells assessed as reduction in cell viability incubated for 72 hrs by CCK-8 assay
# [12] = test system: Raji; test: Antiproliferative activity against human Raji cells assessed as reduction in cell viability incubated for 72 hrs by CCK-8 assay
# [13] = test system: NAMALVA; test: Antiproliferative activity against human NAMALVA cells assessed as reduction in cell viability incubated for 72 hrs by CCK-8 assay
# [14] = target: T3, Protein cereblon/Tyrosine-protein kinase BTK; test: PROTAC activity at CRBN/BTK C481S mutant in human HBL1 cells assessed as decrease in BTK C481S level incubated for 36 hrs by Western blot analysis; type: cell-based
# [15] = target: Epidermal growth factor receptor (Homo sapiens, UniProt P00533); test: Inhibition of EGFR (unknown origin)
# [16] = test system: Ramos; test: Growth inhibition of human Ramos cells; type: functional
# [17] = test system: U2932; test: Growth inhibition of human U2932 cells; type: functional
# [18] = target: T1, Tyrosine-protein kinase BTK; test: Inhibition of BTK (unknown origin)
# [19] = target: T4, Tyrosine-protein kinase JAK3 (Homo sapiens, UniProt P52333); test: Inhibition of JAK3 (unknown origin)
# T4 sequence (P52333 whole entry): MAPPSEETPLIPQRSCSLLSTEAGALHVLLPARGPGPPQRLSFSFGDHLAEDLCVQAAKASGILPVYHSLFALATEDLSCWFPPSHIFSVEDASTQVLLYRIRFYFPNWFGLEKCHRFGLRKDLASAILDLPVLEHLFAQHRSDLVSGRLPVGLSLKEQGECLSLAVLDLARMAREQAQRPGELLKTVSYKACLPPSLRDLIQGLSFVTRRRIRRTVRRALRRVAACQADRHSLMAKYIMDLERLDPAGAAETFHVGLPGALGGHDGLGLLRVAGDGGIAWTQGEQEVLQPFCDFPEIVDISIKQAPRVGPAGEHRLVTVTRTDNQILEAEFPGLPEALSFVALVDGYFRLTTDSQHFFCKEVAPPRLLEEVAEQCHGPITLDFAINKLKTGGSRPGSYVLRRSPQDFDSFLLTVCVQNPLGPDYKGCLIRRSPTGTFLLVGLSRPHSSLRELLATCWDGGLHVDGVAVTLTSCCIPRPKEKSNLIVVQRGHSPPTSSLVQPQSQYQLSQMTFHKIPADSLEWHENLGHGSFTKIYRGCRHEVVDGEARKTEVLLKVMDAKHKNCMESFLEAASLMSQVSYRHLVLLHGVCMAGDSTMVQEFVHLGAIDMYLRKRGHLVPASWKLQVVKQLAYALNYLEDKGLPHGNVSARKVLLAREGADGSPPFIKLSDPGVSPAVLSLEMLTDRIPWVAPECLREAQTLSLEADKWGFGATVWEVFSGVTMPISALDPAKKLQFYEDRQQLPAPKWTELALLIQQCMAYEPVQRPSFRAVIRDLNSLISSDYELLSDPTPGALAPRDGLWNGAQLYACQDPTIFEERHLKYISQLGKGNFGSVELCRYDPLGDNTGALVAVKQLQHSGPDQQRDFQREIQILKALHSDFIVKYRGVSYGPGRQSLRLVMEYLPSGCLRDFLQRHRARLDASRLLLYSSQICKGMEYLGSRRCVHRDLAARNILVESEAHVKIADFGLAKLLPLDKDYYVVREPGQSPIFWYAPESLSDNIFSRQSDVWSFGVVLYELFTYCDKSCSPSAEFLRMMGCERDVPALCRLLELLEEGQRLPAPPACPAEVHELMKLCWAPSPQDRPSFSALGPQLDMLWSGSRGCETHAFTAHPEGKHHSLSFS
# [20] = target: Tyrosine-protein kinase Lck (Homo sapiens, UniProt P06239); test: Inhibition of LCK (unknown origin)
# [21] = test system: OCI-Ly7; test: Growth inhibition of human OCILY7 cells; type: functional
# [22] = target: T5, Protein cereblon/Tyrosine-protein kinase BTK (Homo sapiens, UniProt Q06187+Q96SW2); test: PROTAC activity at CRBN/BTK in human NAMALVA cells assessed as decrease in BTK level incubated for 24 hrs by Western blot analysis; type: cell-based
# Target sequence in this assay (Q06187 whole entry): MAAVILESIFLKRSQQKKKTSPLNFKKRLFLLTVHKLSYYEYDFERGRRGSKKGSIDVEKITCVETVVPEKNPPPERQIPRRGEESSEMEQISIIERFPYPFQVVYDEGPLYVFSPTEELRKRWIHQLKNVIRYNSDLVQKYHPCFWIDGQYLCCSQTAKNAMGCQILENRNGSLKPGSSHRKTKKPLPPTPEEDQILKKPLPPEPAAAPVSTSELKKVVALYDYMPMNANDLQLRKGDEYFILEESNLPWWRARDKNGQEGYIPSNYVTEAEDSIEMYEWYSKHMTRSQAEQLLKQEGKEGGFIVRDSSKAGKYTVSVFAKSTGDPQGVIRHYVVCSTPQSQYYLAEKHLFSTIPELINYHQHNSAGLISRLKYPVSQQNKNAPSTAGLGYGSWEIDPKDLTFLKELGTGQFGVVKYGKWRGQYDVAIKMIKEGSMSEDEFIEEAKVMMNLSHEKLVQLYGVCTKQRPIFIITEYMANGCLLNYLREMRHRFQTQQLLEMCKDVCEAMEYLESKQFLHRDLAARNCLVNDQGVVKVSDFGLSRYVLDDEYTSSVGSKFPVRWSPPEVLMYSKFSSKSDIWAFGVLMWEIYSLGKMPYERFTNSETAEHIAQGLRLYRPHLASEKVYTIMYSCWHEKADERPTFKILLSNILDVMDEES
# Target sequence in this assay (Q96SW2 whole entry): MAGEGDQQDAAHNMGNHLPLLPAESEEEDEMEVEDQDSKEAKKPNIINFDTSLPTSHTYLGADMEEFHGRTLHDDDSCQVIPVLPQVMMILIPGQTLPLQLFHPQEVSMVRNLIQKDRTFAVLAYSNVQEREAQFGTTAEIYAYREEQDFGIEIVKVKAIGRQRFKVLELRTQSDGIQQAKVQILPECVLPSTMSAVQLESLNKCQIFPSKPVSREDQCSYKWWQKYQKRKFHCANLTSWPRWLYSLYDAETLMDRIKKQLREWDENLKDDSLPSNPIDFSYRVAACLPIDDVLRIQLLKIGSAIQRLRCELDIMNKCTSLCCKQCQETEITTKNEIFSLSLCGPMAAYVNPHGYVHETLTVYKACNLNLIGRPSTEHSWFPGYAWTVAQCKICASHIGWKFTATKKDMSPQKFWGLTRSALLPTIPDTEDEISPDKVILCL
# [23] = target: T5, Protein cereblon/Tyrosine-protein kinase BTK; test: PROTAC activity at CRBN/BTK in human NAMALVA cells assessed as decrease in BTK level by measuring maximal efficacy incubated for 24 hrs by Western blot analysis relative to control; type: cell-based
# Target sequence in this assay (Q06187 2-659 limits assumed): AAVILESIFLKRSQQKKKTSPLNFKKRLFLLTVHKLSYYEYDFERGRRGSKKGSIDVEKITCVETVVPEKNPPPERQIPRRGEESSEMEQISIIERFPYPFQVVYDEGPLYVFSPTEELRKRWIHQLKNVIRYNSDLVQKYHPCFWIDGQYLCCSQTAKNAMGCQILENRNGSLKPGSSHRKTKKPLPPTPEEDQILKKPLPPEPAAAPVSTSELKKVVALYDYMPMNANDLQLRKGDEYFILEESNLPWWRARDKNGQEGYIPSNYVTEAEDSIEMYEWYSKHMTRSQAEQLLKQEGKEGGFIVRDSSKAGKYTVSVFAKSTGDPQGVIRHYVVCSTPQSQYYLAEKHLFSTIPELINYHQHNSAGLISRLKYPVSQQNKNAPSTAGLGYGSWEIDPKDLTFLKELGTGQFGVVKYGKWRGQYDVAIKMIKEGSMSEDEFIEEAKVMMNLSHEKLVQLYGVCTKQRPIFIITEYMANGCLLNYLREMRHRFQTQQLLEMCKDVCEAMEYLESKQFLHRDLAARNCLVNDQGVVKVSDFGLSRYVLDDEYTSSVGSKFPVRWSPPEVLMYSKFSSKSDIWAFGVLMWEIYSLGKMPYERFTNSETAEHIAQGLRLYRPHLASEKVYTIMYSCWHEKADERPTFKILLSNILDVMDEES
# Target sequence in this assay (Q96SW2 whole entry partner): as the sequence (Q96SW2 whole entry) above
# [24] = target: T5, Protein cereblon/Tyrosine-protein kinase BTK; test: PROTAC activity at CRBN/BTK in human MINO cells assessed as decrease in BTK level by measuring maximal efficacy incubated for 24 hrs by Western blot analysis relative to control; type: cell-based
# Target sequence in this assay (Q06187 2-659 limits assumed): as the sequence (Q06187 2-659 limits assumed) above
# Target sequence in this assay (Q96SW2 whole entry partner): as the sequence (Q96SW2 whole entry) above
# [25] = target: T5, Protein cereblon/Tyrosine-protein kinase BTK; test: PROTAC activity at CRBN/BTK in human MINO cells assessed as decrease in BTK level incubated for 24 hrs by Western blot analysis; type: cell-based
# Target sequence in this assay (Q06187 whole entry): as the sequence (Q06187 whole entry) above
# Target sequence in this assay (Q96SW2 whole entry): as the sequence (Q96SW2 whole entry) above
# [26] = Antiproliferative activity against human MINO cells assessed as inhibition of cell growth
# [27] = test system: OCI-Ly10; test: Antiproliferative activity against human OCILY10 cells assessed as inhibition of cell growth
# [28] = test system: A549; test: Antiproliferative activity against human A549 cells assessed as inhibition of cell growth
# [29] = target: T1, Tyrosine-protein kinase BTK; test: Competitive inhibition of recombinant human BTK incubated for 10 mins in the presence of ATP by mobility shift assay
# T1 sequence (Q06187 whole entry): as the sequence (Q06187 whole entry) above
# T3 sequence (Q06187 2-659 C481S limits assumed, stated change not applied): as the sequence (Q06187 2-659 limits assumed) above, with C480S counted along it
# T3 sequence (Q96SW2 whole entry, stated change not applied): as the sequence (Q96SW2 whole entry) above
# Sequence of Tyrosine-protein kinase Lck (P06239 whole entry): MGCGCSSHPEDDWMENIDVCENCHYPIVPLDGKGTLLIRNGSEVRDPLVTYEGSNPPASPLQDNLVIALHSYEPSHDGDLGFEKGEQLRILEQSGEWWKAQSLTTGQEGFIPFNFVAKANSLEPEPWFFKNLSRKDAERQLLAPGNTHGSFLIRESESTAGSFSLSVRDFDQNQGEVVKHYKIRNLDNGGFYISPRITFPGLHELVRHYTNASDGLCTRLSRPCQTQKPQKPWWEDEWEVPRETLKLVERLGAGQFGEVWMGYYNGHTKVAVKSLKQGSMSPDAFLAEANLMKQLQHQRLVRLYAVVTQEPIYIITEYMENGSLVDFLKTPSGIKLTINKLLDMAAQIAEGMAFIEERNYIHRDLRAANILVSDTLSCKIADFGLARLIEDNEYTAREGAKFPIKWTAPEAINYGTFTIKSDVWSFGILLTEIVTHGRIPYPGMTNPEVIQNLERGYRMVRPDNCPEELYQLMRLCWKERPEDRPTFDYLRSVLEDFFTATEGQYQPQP
# Sequence of Epidermal growth factor receptor (P00533 whole entry): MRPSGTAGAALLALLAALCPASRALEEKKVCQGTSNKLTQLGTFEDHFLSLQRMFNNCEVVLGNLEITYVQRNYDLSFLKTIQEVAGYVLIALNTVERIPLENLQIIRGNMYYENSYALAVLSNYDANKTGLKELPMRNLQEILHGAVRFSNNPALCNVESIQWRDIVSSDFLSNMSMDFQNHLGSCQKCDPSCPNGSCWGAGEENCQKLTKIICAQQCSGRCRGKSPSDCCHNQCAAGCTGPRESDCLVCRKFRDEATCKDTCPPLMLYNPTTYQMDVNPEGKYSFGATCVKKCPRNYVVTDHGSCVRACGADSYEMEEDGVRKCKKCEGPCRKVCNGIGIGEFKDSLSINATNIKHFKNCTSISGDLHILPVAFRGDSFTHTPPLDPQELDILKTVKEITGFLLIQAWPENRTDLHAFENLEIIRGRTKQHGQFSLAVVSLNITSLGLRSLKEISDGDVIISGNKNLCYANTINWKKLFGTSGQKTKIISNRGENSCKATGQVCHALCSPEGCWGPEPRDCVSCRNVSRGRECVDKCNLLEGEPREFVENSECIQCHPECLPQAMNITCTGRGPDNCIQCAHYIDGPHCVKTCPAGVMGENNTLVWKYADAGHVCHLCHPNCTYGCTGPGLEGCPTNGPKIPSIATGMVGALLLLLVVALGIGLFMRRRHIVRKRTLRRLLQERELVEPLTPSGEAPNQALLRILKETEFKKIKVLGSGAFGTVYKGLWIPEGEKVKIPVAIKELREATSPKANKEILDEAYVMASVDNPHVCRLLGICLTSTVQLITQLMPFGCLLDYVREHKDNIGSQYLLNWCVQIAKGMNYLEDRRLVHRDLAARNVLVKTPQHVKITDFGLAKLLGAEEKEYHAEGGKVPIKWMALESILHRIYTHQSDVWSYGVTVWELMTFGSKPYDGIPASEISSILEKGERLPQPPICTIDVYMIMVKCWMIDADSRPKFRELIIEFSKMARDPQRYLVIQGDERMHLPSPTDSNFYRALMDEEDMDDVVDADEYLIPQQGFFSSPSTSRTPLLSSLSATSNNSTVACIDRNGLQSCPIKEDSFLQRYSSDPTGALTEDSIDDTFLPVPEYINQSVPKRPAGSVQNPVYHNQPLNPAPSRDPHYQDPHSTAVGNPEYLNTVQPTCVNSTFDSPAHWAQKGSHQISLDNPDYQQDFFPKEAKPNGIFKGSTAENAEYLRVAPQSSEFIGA
# Sequence of E3 ubiquitin-protein ligase XIAP/Tyrosine-protein kinase BTK (P98170 whole entry): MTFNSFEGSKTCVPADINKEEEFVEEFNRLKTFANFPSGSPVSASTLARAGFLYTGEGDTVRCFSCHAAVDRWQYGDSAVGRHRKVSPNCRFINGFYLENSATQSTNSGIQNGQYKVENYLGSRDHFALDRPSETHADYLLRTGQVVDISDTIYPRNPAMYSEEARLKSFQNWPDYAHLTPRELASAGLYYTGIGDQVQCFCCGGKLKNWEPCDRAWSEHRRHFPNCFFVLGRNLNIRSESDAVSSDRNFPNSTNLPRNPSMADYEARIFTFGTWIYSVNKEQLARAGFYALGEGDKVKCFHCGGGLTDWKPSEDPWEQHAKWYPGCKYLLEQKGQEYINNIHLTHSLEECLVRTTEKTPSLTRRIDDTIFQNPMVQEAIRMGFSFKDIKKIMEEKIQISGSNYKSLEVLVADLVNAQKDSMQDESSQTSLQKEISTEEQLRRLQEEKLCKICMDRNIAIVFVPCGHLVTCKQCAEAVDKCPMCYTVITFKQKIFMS
# Sequence of E3 ubiquitin-protein ligase XIAP/Tyrosine-protein kinase BTK (Q06187 whole entry): as the sequence (Q06187 whole entry) above
compound,measurement,setting,value
CN[C@H](C)C(=O)N[C@@H](C(=O)N1C[C@@H](NC(=O)COCCOCCOCCOCCN2CCN(CCCC(=O)N3CCCC(n4nc(-c5ccc(Oc6ccccc6)cc5)c5c(N)ncnc54)C3)CC2)C[C@H]1C(=O)N[C@@H]1CCCc2ccccc21)C1CCCCC1 (stereo partly drawn),EC50,[1],200 nM
Nc1ncnc2c1c(-c1ccc(Oc3ccccc3)cc1)nn2Cc1ccccc1F,IC50,[2],11100 nM
same,IC50,[3],32900 nM
same,IC50,[4],43700 nM
same,IC50,[5],34300 nM
same,IC50,[6],39 nM
Cc1cnc(-c2ccc(-c3ccc(NC(=O)Nc4cccc(C(F)(F)F)c4)cc3F)c3c2C(=O)NC3)[nH]1,IC50,[7],80 nM
CN1CCN(c2ccc(Nc3nc(Nc4ccc(F)c(F)c4)c4ncn(CC5CC5)c4n3)cc2)CC1,IC50,[8],18500 nM
CN1CCN(c2ccc(Nc3nc(Nc4ccccc4)c4ncn(CC5CC5)c4n3)cc2)CC1,IC50,[9],900 nM
Nc1cccc(Cn2nc(-c3ccc(Oc4ccccc4)cc3)c3c(N)ncnc32)c1,IC50,[3],11200 nM
same,IC50,[4],14200 nM
same,IC50,[5],16800 nM
Nc1ncnc2c1c(-c1ccc(Oc3ccccc3)cc1)nn2[C@@H]1CCCN(C(=O)c2cn(CCOCCOCCOCCNc3cccc4c3C(=O)N(C3CCC(=O)NC3=O)C4=O)nn2)C1 (stereo partly drawn),EC50,[10],30 nM
C=CC(=O)Nc1cccc(Nc2nc(Nc3ccc(Cn4cc(C)nc4CC)cc3)ncc2Cl)c1,IC50,[11],10800 nM
same,IC50,[12],7980 nM
same,IC50,[13],4900 nM
Nc1ncnc2c1c(-c1ccc(Oc3ccccc3)cc1)nn2Cc1cccc(NC(=O)CCl)c1,IC50,[3],400 nM
same,IC50,[4],800 nM
same,IC50,[5],400 nM
Nc1ncnc2c1c(-c1ccc(Oc3ccccc3)cc1)nn2C1CCCN(C(=O)c2cn(CCOCCOCCOCCCc3cccc4c3CN(C3CCC(=O)NC3=O)C4=O)nn2)C1 (stereo not drawn),EC50,[14],29 nM
C=CC(=O)N1CCc2ccc(N3C(=O)CCc4cnc5ccc(-c6cnn(C)c6)cc5c43)cc21,IC50,[15],4310 nM
same,GI50,[16],370 nM
same,GI50,[17],200 nM
same,IC50,[18],6.59 nM
same,IC50,[19],5180 nM
O=C(c1ccc(Oc2ccccc2)cc1Cl)c1c[nH]c2ncnc(NC3CC[C@@H](CO)OC3)c12 (stereo partly drawn),IC50,[20],3.9 nM
CN1CCN(c2ccc(Nc3nc(Nc4cccc(F)c4)c4ncn(CC5CC5)c4n3)cc2F)CC1,IC50,[9],1810 nM
CN1CCN(c2ccc(Nc3nc(Nc4ccc(F)cc4)c4ncn(CC5CC5)c4n3)cc2)CC1,IC50,[9],1300 nM
Nc1ncnc2c1c(-c1ccc(Oc3ccccc3)nc1)nn2C1CCCN(C(=O)CCl)C1 (stereo not drawn),IC50,[3],400 nM
same,IC50,[5],400 nM
C=CC(=O)Nc1cccc(Cn2nc(-c3ccc(Oc4ccccc4)cc3)c3c(N)ncnc32)c1,IC50,[2],1300 nM
same,IC50,[3],1300 nM
same,IC50,[4],2800 nM
same,IC50,[5],2600 nM
same,IC50,[6],50 nM
C=CC(=O)NCC(=O)Nc1ncc(NC(=O)c2cc(C)cc(NC(=O)c3cccc(C)c3)c2)cn1,IC50,[18],< 5 nM
same,GI50,[21],220 nM
Nc1ncnc2c1c(-c1ccc(Oc3ccccc3)cc1)nn2C1CCN(CCOCCOCC(=O)Nc2ccc3c(c2)C(=O)N(C2CCC(=O)NC2=O)C3=O)CC1 (stereo not drawn),EC50,[22],6.2 nM
same,Emax,[23],> 99%
CN1CCN(c2ccc(Nc3nc(Nc4cccc(F)c4)c4ncn(CC5CC5)c4n3)cc2)CC1,IC50,[9],660 nM
Nc1ncnc2c1c(-c1ccc(Oc3ccccc3)cc1)nn2C1CCCN(C(=O)/C=C/CCCCCOCCOCCOCCOCCOc2cccc3c2C(=O)N(C2CCC(=O)NC2=O)C3=O)C1 (stereo not drawn),Emax,[24],90%
same,EC50,[25],10 nM
C#C/C(=C\C(C)(C)CCCCOCCOCCOCCOCCOc1cccc2c1C(=O)N(C1CCC(=O)NC1=O)C2=O)C(=O)N1CCCC(n2nc(-c3ccc(Oc4ccccc4)cc3)c3c(N)ncnc32)C1 (stereo not drawn),Emax,[24],90%
same,EC50,[25],10 nM
Nc1ncnc2c1c(-c1ccc(Oc3ccccc3)cc1)nn2C1CCCN(C(=O)CCCCCCCOCCOCCOCCOCCOc2cccc3c2C(=O)N(C2CCC(=O)NC2=O)C3=O)C1 (stereo not drawn),Emax,[24],97%
same,EC50,[25],2.2 nM
C=CC(=O)Nc1cccc(Nc2nc(Nc3ccc(Cn4cc(C)nc4CC)cc3)ncc2F)c1,IC50,[11],9250 nM
same,IC50,[12],4370 nM
same,IC50,[13],4950 nM
C=C(Cl)C(=O)N1CCC(n2nc(-c3ccc(Oc4ccccc4)cc3)c3c(N)ncnc32)CC1,IC50,[26],560 nM
same,IC50,[27],200 nM
same,IC50,[28],3890 nM
same,IC50,[29],2.5 nM
